Results on 23 compounds are retold here after PubChem BioAssay (NCI).

SMILES strings stand for the structures.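 A five-concentration, 48-hour dose response in 96-well plates underlies each endpoint, interpolated linearly between surrounding concentrations. TGI: concentration producing complete growth inhibition.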 Where a SMILES comes first, the peptide text is derived from it. [ ]: non-standard residue; d: D form. The star is where a group is joined. ξ: configuration not given here. Propanoyl(3-(4-MeO-Ph)) = COc1ccc(CCC(=O)*)cc1; Thr(3ξ) = CC(O)[C@H](N)C(=O)O; dNMeL = CN[C@H](CC(C)C)C(=O)O; ξLac = CC(O)C(=O)O Bounds are passed on as bounds.

What all share (assay): NCI-60 cell line screen, 48 h
Assay [1] concerns SW-620 colon.
The subject of assay [2] is NCI-H226 lung.
The subject of assay [3] is OVCAR-4 ovarian.
For assay [4], the system named is SK-MEL-2 melanoma.
Assay [5] deals with RPMI-8226 leukemia.
The subject of assay [6] is M14 melanoma.
Assay [7] deals with SF-268 CNS.
Assay [8] relates to SR leukemia.
In assay [9] the test system is NCI-H522 lung.
The test system of assay [10] is EKVX NSCLC.

In the case of `COc1ccc(NCc2cnc3nc(N)nc(N)c3c2C)cc1`, the TGI in [1] is above 100 µM; in [2], above 93.9 µM; in assay [3], above 100 µM; in [4] it was above 100 µM; in assay [5], above 100 µM; in assay [6] it was above 100 µM. In addition, the TGI in assay [7], in assay [8], in assay [9] and in assay [10] was above 100 µM each time.
For the compound `COc1cc2cc3c4c(cc(OC)c(OC)c4c2cc1OC)CCN3C(=O)N(C)C`, the TGI in [1] was above 100 µM; in [2] it was above 100 µM; in assay [3], above 100 µM; in assay [4], above 100 µM; in assay [5] it was above 100 µM; in [6], above 10 µM. Besides, the TGI in [7], in assay [8], in [9] and in [10] was above 100 µM each time.
For the compound `NC(=O)c1ncn2c(=O)n(CCl)nnc12`, the TGI in assay [1], in [2], in assay [3], in assay [4], in assay [5] and in assay [6] was above 100 µM throughout. The TGI in assay [7], in assay [8], in assay [9] and in [10] was above 100 µM throughout.
On to `CC(O)c1cc2c(s1)C(=O)c1scc(C(C)O)c1C2=O` (stereo not given), for which the TGI in assay [1] was above 100 µM; in assay [2] it was 4.03 µM; in [3], 1.73 µM; in assay [4], 0.606 µM; in [5] it was 0.626 µM; in [6] it was 0.442 µM. In addition, the TGI in assay [7] was 0.889 µM; in assay [8] it was above 100 µM; in [9] it was 2.56 µM; in assay [10], 2.93 µM.
In the case of `Cn1c(N=[N+]=[N-])cc(=O)n(C)c1=O`, the TGI in assay [1], in assay [2], in assay [3], in assay [4], in assay [5] and in assay [6] was above 100 µM each time. Besides, the TGI in assay [7], in assay [8], in [9] and in [10] was above 100 µM each time.
As for `CCOC(=O)C1C[C@H]2CO[C@H](c3ccccc3)N2C1=O` (stereo not given in full), the TGI in assay [1], in assay [2], in [3], in assay [4], in assay [5] and in assay [6] was above 100 µM throughout. In addition, the TGI in assay [7], in assay [8], in [9] and in assay [10] was above 100 µM each time.
Turning to `N#CCOc1cccc(C2(N3CC=CCC3)CCCCC2)c1`, the TGI in [1], in assay [2], in assay [3], in [4], in assay [5] and in [6] was above 100 µM throughout. For the same compound, the TGI in assay [7], in assay [8], in [9] and in [10] was above 100 µM each time.
Take `CN(C)CCNC(=O)c1cccc2[nH]c(-c3ccncc3)nc12`: the TGI in assay [1] was 13 µM; in assay [2], above 50.5 µM; in assay [3], above 100 µM; in [4], 11.5 µM; in assay [5], 21.5 µM; in [6], 3.39 µM. In addition, the TGI in [7] was 47.4 µM; in assay [8] it was above 100 µM; in [9], 3.97 µM; in assay [10] it was 73.7 µM.
Consider `COc1ccc2c(c1)CC1(O)COc3cc(OC)ccc3C1O2` (stereo not given), for which the TGI in assay [1], in assay [2], in assay [3], in assay [4], in [5] and in assay [6] was above 100 µM throughout. Further, the TGI in assay [7], in assay [8], in assay [9] and in assay [10] was above 100 µM throughout.
Regarding `O=C1c2ccccc2-c2nnc(-c3ccc(Cl)cc3)cc21`, the TGI in [1], in assay [2], in assay [3], in assay [4], in [5] and in assay [6] was above 10 µM throughout. The TGI in [7], in assay [8], in assay [9] and in assay [10] was above 10 µM each time.
Regarding `O=C(CCc1ccc(O)c(O)c1)NCCc1ccc(O)c(O)c1`, the TGI in assay [1] was above 100 µM; in assay [2] it was above 100 µM; in assay [3], 33.7 µM; in [4], above 100 µM; in assay [5] it was above 100 µM; in [6], above 100 µM. Besides, the TGI in assay [7] is above 100 µM; in [8], 74.1 µM; in assay [9], above 100 µM; in [10], above 100 µM.
On to `CC1(C)OCC(COC(=O)NCn2cc(-c3ccccc3)nn2)O1` (stereo not given), for which the TGI in [1], in assay [2], in assay [3], in [4], in [5] and in [6] was above 100 µM throughout. Also, the TGI in assay [7], in assay [8], in assay [9] and in assay [10] was above 100 µM throughout.
As for `Cc1cc2c(cc1-c1cc3c(cc1C)C(C(C)C)=C(O)C(=O)/C3=C\Nc1c(C)n(C)n(-c3ccccc3)c1=O)/C(=C/Nc1c(C)n(C)n(-c3ccccc3)c1=O)C(=O)C(O)=C2C(C)C`, the TGI in assay [1], in assay [2], in [3], in assay [4], in [5] and in assay [6] was above 100 µM throughout. In addition, the TGI in [7], in assay [8], in assay [9] and in [10] was above 100 µM each time.
On to `N#CCSc1c(-c2ccccc2)c(=O)n(-c2ccccc2)c(=S)n1-c1ccccc1`, for which the TGI in assay [1], in [2], in assay [3], in [4], in assay [5] and in assay [6] was above 100 µM each time. Moreover, the TGI in assay [7], in assay [8], in assay [9] and in assay [10] was above 100 µM throughout.
With `COc1ccc(N2C(N)=C(C#N)C(C#N)(C#N)C2c2cccc([N+](=O)[O-])c2)cc1` (stereo not given), the TGI in assay [1] came out at 26 µM; in [2] it was 35.4 µM; in assay [3], 32 µM; in [4], 33.2 µM; in assay [5], 42.5 µM; in [6], 35.6 µM. The TGI was 44 µM in assay [7], above 66 µM in [8], 20.7 µM in assay [9] and 39.7 µM in [10].
Consider `COc1ccc(-c2nnc(CCCCCCCCc3nnc(-c4ccc(OC)cc4)n3N)n2N)cc1`, for which the TGI in assay [1], in assay [2], in [3], in assay [4], in [5] and in assay [6] was above 100 µM each time. In addition, the TGI in assay [7], in [8], in assay [9] and in assay [10] was above 100 µM throughout.
On to `COC(=O)C(Cc1ccccc1)NC(=O)c1ccc(CNC(=S)NCc2cccc(CNC(=S)NCc3ccccc3)c2)cc1` (stereo not given), for which the TGI in assay [1], in assay [2], in assay [3], in [4], in [5] and in assay [6] was above 62.5 µM in each case. Moreover, the TGI in assay [7], in [8], in assay [9] and in [10] was above 62.5 µM each time.
For the compound `c1ccc(CCN2CCN=C2Cc2ccccc2)cc1`, the TGI in [1], in [2], in assay [3], in [4], in assay [5] and in [6] was above 100 µM in each case. Moreover, the TGI in assay [7], in assay [8], in assay [9] and in assay [10] was above 100 µM each time.
As for `CCOC(=O)Cn1nnc2cc(Nc3nc4ccccc4nc3C(=O)OCC)ccc21`, the TGI in assay [1], in assay [2], in assay [3], in assay [4], in assay [5] and in assay [6] was above 100 µM throughout. Also, the TGI in assay [7], in assay [8], in assay [9] and in assay [10] was above 100 µM in each case.
As to `NC(=O)CCC(NC(=O)c1cccc2c(=O)c3ccccc3[nH]c12)C(=O)O` (stereo not given), the TGI in assay [1], in assay [2], in assay [3], in [4], in assay [5] and in assay [6] was above 100 µM throughout. The TGI in assay [7], in assay [8], in [9] and in [10] was above 100 µM throughout.
As to `S=c1nc2sc3c(c2c(Nc2ccc(Br)cc2)[nH]1)CCN(N1CCc2c(sc4nc(=S)[nH]c(Nc5ccc(Br)cc5)c24)C1)C3`, the TGI in assay [1] is above 50 µM; in [2], above 50 µM; in assay [3], above 50 µM; in [4], above 50 µM; in assay [5], above 50 µM; in assay [6], 17.1 µM. Further, the TGI in [7] is above 50 µM; in [8], above 50 µM; in [9] it was 44.5 µM; in assay [10], above 50 µM.
As to `Cc1[nH]c(=O)nc2nc3ccc(Cl)cc3c(NC(C)(CO)CO)c12`, the TGI in [1], in assay [2], in [3], in assay [4], in assay [5] and in assay [6] was above 100 µM in each case. In addition, the TGI in assay [7] is above 100 µM; in assay [8], above 100 µM; in [9], above 67.9 µM; in assay [10] it was above 100 µM.
For the compound `COC(=O)[C@@H](NC(=O)[C@@H](CC(C)C)N(C)C(=O)[C@@H]1CCCN1C(=O)C(C)O)C(C)OC(=O)CCc1ccc(OC)cc1` (stereo not given in full) (H-[ξLac]P[dNMeL][Thr(3ξ)](Propanoyl(3-(4-MeO-Ph)))-OMe), the TGI in assay [1], in assay [2], in assay [3], in assay [4], in assay [5] and in assay [6] was above 100 µM each time. Moreover, the TGI in assay [7], in assay [8], in assay [9] and in assay [10] was above 100 µM each time.
